Experimental data from BindingDB's records for doi:10.1021/acschembio.6b00511 (Novartis Institutes For Biomedical Research, 2016).
“And” between values parts separate entries of the source, which are not always exact repeats. Identical values can stand only once.

Tests used:
[1] = biological target: T1, Serine/threonine-protein kinase WNK1 [1-491] (Homo sapiens, UniProt Q9H4A3); experiment: WNK1 Mobility Shift Assay; conditions: pH 7.5
T1 construct: 1-491
Procedure: A mixture of fluorescein labeled OSR1 peptide substrate (Toray Research Center, Inc.) and ATP was prepared with final concentrations of 10 and 25 μM, respectively, in 7 μL of reaction buffer [20 mM HEPES Na (pH 7.5), 1 mM MnCl2, 0.01% Tween 20, and 2 mM DTT]. Compounds at final concentrations from 0.003 to 100 μM in 1 μL were added to the peptide/ATP mixture at a final DMSO concentration of 10%. The reaction was initiated by the addition of 2 μL of GST-WNK1 (1−491; Carna Biosciences) that was 86% pure at a final concentration of 25 nM in a 384-well plate. After incubation for 3 h at 25 °C, where 15% conversion of the substrate to the product was observed, 10 μL of a stop buffer containing 0.2% coating-3 reagent with 2 mM EDTA was added. For 800 μM ATP, the WNK1 assay was performed for 50 min at 25 °C, where 15% conversion of the substrate to the product was observed. Aliquots from each well were transferred onto a four-sipper chip on a Labchip3

[2] = biological target: T1, Serine/threonine-protein kinase WNK1 [1-491]; experiment: WNK In Vitro Radiometric Assays; conditions: pH 7.3
Procedure: (§1) The assay utilized 5 to 10 nM of WNK1−4 protein compared to 25 nM used for mobility shift assay, enabling a more accurate comparison of selectivity among potent inhibitors. Assays measured the incorporation of 33P from [γ-33P]ATP into myelin basic protein (MBP) coated in the wells of 96-well ScintiPlates (PerkinElmer). Each well of the MBP-coated ScintiPlates held 100 μL of a solution containing 20 mM HEPES at pH 7.3, 5 mM MnCl2 (WNK1 and WNK4) or 3 mM MnCl2 (WNK2 and WNK3), 0.01% Tween-20 (WNK1, WNK3, and WNK4) or 0.02% Tween-20 (WNK2), 1 mM TCEP, 2% DMSO, 1 μM ATP (WNK1, WNK3, and WNK4) or 2 μM ATP (WNK2), 1 μCi [γ -33P]ATP (WNK1, WNK2, WNK4) or 0.25 μCi [γ-33P]ATP (WNK3), WNK kinase enzyme (5 nM WNK1, 10 nM WNK2, 5 nM WNK3, or 10 nM WNK4), and the compound at the desired concentration. The plate was sealed and mixed for 20 s at 800 rpm on a benchtop plate shaker. The plate was then placed in a 25 °C shaking incubator at 175 rpm. Reactio

[3] = biological target: T2, Serine/threonine-protein kinase WNK2 [166-489] (Homo sapiens, UniProt Q9Y3S1); experiment: WNK In Vitro Radiometric Assays; conditions: pH 7.3
T2 construct: 166-489
T2 sequence (Q9Y3S1 166-489): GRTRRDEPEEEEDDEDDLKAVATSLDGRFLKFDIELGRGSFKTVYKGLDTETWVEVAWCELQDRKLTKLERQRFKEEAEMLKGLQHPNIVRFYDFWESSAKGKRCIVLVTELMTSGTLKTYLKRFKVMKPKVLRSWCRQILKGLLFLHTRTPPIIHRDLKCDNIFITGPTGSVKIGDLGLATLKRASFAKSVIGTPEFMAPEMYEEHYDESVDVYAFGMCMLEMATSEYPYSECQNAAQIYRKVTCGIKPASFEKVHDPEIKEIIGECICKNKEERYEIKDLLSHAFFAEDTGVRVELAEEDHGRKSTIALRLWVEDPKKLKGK
Procedure: as §1

[4] = biological target: T3, Serine/threonine-protein kinase WNK3 [1-434] (Homo sapiens, UniProt Q9BYP7); experiment: WNK In Vitro Radiometric Assays; conditions: pH 7.3
T3 construct: 1-434
T3 sequence (Q9BYP7 1-434): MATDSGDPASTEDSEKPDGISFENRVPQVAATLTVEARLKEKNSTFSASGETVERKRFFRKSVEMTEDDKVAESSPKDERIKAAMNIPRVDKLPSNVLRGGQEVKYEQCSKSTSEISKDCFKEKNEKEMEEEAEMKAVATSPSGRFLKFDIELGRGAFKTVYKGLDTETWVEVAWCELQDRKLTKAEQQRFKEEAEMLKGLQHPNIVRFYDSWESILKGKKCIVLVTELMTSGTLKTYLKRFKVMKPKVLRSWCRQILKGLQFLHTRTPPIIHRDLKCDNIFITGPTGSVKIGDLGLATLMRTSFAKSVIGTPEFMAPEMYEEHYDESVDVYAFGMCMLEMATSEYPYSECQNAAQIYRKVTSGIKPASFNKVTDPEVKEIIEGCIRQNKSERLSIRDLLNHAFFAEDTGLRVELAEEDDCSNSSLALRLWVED
Procedure: as §1

[5] = biological target: T4, Serine/threonine-protein kinase WNK4 [1-444] (Homo sapiens, UniProt Q96J92); experiment: WNK In Vitro Radiometric Assays; conditions: pH 7.3
T4 construct: 1-444
T4 sequence (Q96J92 1-444): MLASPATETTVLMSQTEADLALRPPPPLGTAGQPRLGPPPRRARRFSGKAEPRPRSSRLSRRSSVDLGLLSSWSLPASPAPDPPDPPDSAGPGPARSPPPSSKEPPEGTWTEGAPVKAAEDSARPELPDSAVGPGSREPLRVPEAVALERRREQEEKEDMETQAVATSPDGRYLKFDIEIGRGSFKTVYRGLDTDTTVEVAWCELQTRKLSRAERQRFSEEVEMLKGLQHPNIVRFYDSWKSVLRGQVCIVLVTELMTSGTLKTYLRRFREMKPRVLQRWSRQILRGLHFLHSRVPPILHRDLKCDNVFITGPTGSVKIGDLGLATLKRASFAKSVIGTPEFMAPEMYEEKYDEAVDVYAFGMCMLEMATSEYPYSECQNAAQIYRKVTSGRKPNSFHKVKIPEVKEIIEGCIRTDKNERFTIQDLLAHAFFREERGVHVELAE
Procedure: as §1

T1 sequence (Q9H4A3 1-491): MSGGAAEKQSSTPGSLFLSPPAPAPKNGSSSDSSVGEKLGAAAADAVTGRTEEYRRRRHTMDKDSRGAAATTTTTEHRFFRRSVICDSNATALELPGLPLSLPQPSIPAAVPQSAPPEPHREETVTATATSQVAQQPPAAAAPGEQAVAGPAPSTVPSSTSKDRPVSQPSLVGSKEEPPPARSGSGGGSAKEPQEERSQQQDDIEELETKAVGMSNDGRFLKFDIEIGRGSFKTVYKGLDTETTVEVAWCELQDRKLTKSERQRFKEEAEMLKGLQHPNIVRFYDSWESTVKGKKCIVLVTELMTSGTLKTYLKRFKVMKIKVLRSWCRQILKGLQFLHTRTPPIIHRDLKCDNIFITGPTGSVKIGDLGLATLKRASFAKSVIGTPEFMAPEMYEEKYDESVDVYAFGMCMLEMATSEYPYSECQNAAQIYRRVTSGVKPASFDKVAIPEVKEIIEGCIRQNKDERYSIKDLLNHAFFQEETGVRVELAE

IC50 [1]: 180 nM and 150 nM
IC50 [2]: 64 nM
IC50 [3]: 50 nM
IC50 [4]: 377 nM
IC50 [5]: 187 nM
Structure (SMILES): CNc1nc(-c2ccc3c(c2)CCN3C(=O)c2ccccc2OCc2ccc(Cl)cc2)cs1 [(2-((4-Chlorobenzyl)oxy)phenyl)(5-(2-(methylamino)thiazol-4-yl)indolin-1-yl)methanone (Compound 2)]
